Test results published in publication PMC8162438, “Cancer cell-selective modulation of mitochondrial respiration and metabolism by potent organogold(III) dithiocarbamates” (Chemical Science, 2020).

System: MRC5
Assay: MTT cell viability, human fetal lung fibroblasts MRC5
Format: cell-based
Conditions: 72 h
Method: All the gold(III) dithiocarbamate compounds display remarkable cell killing potential in a panel of breast, ovarian, lung and leukemia cancers. Preliminary studies focused on different cancer cell lines (MDA-MB-231, MDA-MB-175, and A2780), an immortalized normal retinal epithelial cell line (RPE-NEO) and human fetal lung fibroblasts (MRC5) (Fig. S111–S129 ^†). These adherent cells were exposed to a serial-diluted concentration of all ten compounds for 72 h. The cells were subsequently treated with 3-(4,5-dimethylthiazol-2-yl)-2,5-diphenyltetrazolium bromide (MTT) solutions, dissolved with DMSO and the absorbance at 570 nm was measured with a plate-reader.
In Vitro Biological Assays
Cell Culture. All cell lines were purchased from ATCC and routinely grown in a humidified incubator at 37 °C with 5-10% CO 2. MDA-MB-231, MDA-MB-175, MRC5, RPE-NEO, H460, and K562 were grown in DMEM supplemented with 10% FBS, 1% amphotericin and 1% penicillin/streptomycin. A2780 cells were grown in RPMI supplemented with 10% FBS, 1% amphotericin, and 1% penicillin/streptomycin, and 4 mM glutamine. All supplements along with PBS and trypsin-EDTA were purchased from Corning Inc. and used as is. […]
Cell Viability of 1a-1e and 2a-2e (Adherent Cell Lines). The cell viability of all 10 complexes were performed in MDA-MB-231, MDA-MB-175, A2780, RPE-NEO and MRC5. The cell viability of compound 2a was also determined in H460. Cells were grown to confluency and trypsin was added to detach and harvest cells. The cells were washed with 2 mL of PBS and suspended in 10 mL of the appropriate media. The cells were centrifuged at 2000 rpm for 5 minutes and the pellet washed with 2 mL of PBS then suspended in 5 mL of the appropriate […]
media. The cells were plated at a density of 2,000 cells/well in a 96-well clear bottom plate and allowed to adhere overnight at 37 °C with 5-10% CO 2. The compounds were prepared as a stock in DMSO and used fresh. The compounds were added at seven concentrations with a 3x serial dilution starting at 50 µM for the highest concentration and incubated at 37 °C for 72 h with 5-10% CO 2. The medium was removed and a solution of MTT (100 µL, prepared by dissolving MTT at 5 mg/mL and diluting by 10x with DMEM) was added to each well and incubated for 4 h at 37 ° C with 5-10% CO 2. The dye was removed from each well and 100 µL of DMSO was added to induce cell lysis. The plates were read using a Genios plate reader (λ = 570 nm). The experiment was performed in triplicate and data are plotted as the mean ± s.e.m. (n = 3). Data for 2a can be found in the main text (Figure 6) and the other complexes can be seen in the supplementary figures (S111 – S129). […]
Cells were grown to confluency and centrifuged at 2000 rpm for 5 minutes to collect the cell pellet. The cells were washed with 5 mL of PBS, suspended in 5 mL of DMEM, and centrifuged again at 2000 rpm for 5 minutes to collect the pellet. The pellet was then washed with 2 mL of PBS and suspended in 5 mL of DMEM. The cells were plated at density of 2,000 cells/well in a 96-well white bottom plate. 2a was prepared as a stock solution […]
10% CO 2. The cells were removed from the incubator and allowed to rest at room temperature for 30 minutes. To each designated well was then added 20 µL of CellTiter-Glo solution and orbitally shaken for 5 minutes and the luminescence (1000 ms integration and 150 ms gain) acquired on a Genios plate reader. The experiment was performed in triplicate. Data are plotted […]
Apoptosis Analysis. […]
A stock of 2a was prepared fresh in DMSO and added to the desired well at a concentration of 1 µM with a final volume of 2.5 mL and incubated for 4 h at 37 °C. A stock of H2O2 was prepared in PBS and the cells treated at a final concentration of 2 mM for 1 hour as a […]

## C[N+](C)=C1[S][Au-2]2([S]1)[c]1ccccc1C(=O)c1cccc[n+]12.F[P-](F)(F)(F)(F)F (centres unmarked) [1a]
  IC50: > 50 µM

## C[N+](C)=C1[S][Au-2]2([S]1)[c]1ccccc1Cc1cccc[n+]12.F[P-](F)(F)(F)(F)F (centres unmarked) [2a]
  IC50: > 50 µM
